According to patent publication US6995154B2, “Heterocyclic topoisomerase poisons” (Rutgers, The State University of New Jersey, priority 1997, dated 2006):

Legend:
human topoisomerase I = target: T1, human topoisomerase I (Homo sapiens, UniProt P11387); assay: Test A. Topoisomerase I Cleavage Assay; assay type: biochemical; conditions: concentration relative to compound 5 (arbitrarily assumed as 1) producing the same cleavage on plasmid DNA with human topoisomerase I
T1 construct: unnamed fusion partner (recombinant fusion protein); made in house
T1 sequence (P11387 1-765): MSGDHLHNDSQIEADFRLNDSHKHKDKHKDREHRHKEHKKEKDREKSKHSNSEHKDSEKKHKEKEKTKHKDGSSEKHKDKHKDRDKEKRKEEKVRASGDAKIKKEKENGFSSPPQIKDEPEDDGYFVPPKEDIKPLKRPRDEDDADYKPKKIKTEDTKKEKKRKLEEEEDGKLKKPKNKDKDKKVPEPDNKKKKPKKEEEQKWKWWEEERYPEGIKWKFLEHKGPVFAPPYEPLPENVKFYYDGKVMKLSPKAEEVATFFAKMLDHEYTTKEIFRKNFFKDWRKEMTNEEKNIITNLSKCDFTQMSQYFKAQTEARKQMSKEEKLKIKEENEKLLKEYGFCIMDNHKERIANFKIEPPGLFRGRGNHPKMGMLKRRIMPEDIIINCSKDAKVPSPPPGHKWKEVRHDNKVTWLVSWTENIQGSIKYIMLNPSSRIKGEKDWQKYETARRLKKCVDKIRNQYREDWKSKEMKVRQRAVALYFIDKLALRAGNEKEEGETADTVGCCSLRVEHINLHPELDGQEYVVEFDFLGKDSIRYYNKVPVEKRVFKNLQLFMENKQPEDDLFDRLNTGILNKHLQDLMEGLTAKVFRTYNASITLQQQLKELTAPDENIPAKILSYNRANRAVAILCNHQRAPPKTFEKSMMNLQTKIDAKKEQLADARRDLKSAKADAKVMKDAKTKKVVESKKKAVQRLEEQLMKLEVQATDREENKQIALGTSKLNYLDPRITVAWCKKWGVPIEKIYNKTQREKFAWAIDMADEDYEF
Protocol: Test A. Topoisomerase I Cleavage Assay
Representative compounds of the invention were evaluated in a cleavage assay using recombinant topoisomerases I. This assay was preformed as described by B. Gatto et al. Cancer Res., 1996, 56, 2795–2800. Human topoisomerase I was isolated as a recombinant fusion protein using a T7 expression system. Plasmid YEpG was purified by the alkali lysis method followed by phenol deproteination and CsCl/ethidium isopycnic centrifugation as described by Maniatis, T.; Fritsch, E. F.; Sambrook, J. Molecular Cloning, a Laboratory Manual; Cold Spring Harbor Laboratory: Cold Spring Harbor, N.Y. 1982; pp 149–185. The end-labeling of the plasmid was accomplished by digestion with a restriction enzyme followed by end-filling with Klenow polymerase as previously described by Liu, L. F.; Rowe, T. C.; Yang, L.; Tewey, K. M.; Chen, G. L. “Cleavage of DNA by mammalian topoisomerase II,” J. Biol. Chem. 1983, 258, 15365. IC50 values were calculated after 4 days of continuous drug exposure. Topoisomerase I cleavage values are reported as REC, Relative Effective Concentration (i.e., concentrations relative to compound 5, whose value is arbitrarily assumed as 1) that is able to produce the same cleavage on the plasmid DNA in the presence of human topoisomerase I.

RPMI 8402 cells = assay: Test B. MTT cytotoxicity assay (MTA), RPMI 8402; assay type: cell-based; conditions: RPMI 8402 human lymphoblast; continuous drug exposure, MTT at end of fourth day
Protocol: (§1) Test B. Cytotoxicity Assay
(§2) Cytotoxicity was determined using the MTT-microtiter plate tetrazolinium cytotoxicity assay (MTA) (See Chen A. Y. et al. Cancer Res. 1993, 53, 1332; Mosmann, T. J., J. Immunol. Methods 1983, 65, 55; and Carmichael, J. et al. Cancer Res. 1987, 47, 936). The human lymphoblast RPMI 8402 and its camptothecin-resistant variant cell line, CPT-K5 were provided by Dr. Toshiwo Andoh (Aichi Cancer Center Research Institute, Nagoya, Japan) (see Andoh, T.; Okada, K. “Drug resistance mechanisms of topoisomerase I drugs,” Adv. in Pharmacology 1994, 29B, 93. The cytotoxicity assay was performed using 96-well microtiter plates. Cells were grown in suspension at 37° C. in 5% CO2 and maintained by regular passage in RPMI medium supplemented with 10% heat-inactivated fetal bovine serum, L-glutamine (2 mM), penicillin (100 U/mL), and streptomycin (0.1 mg/mL). For determination of IC50, cells were exposed continuously with varying concentrations of drug and MTT assays were performed at the end of the fourth day.

[1] = system: CPT-K5 (camptothecin-resistant variant of RPMI 8402); assay: Test B. MTT cytotoxicity assay (MTA), CPT-K5; assay type: cell-based, human; conditions: continuous drug exposure, MTT at end of fourth day
Protocol: as §1, §2

SMILES	Topo I-mediated DNA cleavage (REC, Relative Effective Concentration) (human topoisomerase I)	IC50 (RPMI 8402 cells) [µM]	IC50 [1] [µM]
c1ccc(-c2ccc3[nH]c(-c4ccc5[nH]c(-c6ccc7[nH]nnc7c6)nc5c4)nc3c2)cc1 [Compound 2, 5-Phenyl-2′-(benzotriazol-5-yl)-bibenzimidazole]	1	0.47	0.47
O=c1[nH]c2ccc(-c3nc4cc(-c5nc6cc(-c7ccccc7)ccc6[nH]5)ccc4[nH]3)cc2[nH]c1=O [Compound 4, 5-Phenyl-2′-(quinoxalinedione-6-yl)bibenzimidazole]	–	20	> 20
c1ccc(-c2ccc3[nH]c(-c4ccc5[nH]c(-c6ccc7nccnc7c6)nc5c4)nc3c2)cc1 [Compound 3, 5-Phenyl-2′-(quinoxaline-6-yl)-bibenzimidazole]	1	2.3	21
